In patent US11197891B2, “Therapies with lanthionine C-like protein 2 ligands and cells prepared therewith” (Landos Biopharma, Inc., priority 2017, dated 2021):
Where two headings read alike, the source gives them in different places. Blank lines part the entries; values can stand above or below the molecule they belong to.

Assays:
LANCL2 [1] = biological target: T1, LANCL2 (Homo sapiens, UniProt Q9NS86); details: rows marked REF 18; read-out: SPR Affinity to LANCL2 (Kd); cited from earlier work
T1 sequence (Q9NS86 1-450): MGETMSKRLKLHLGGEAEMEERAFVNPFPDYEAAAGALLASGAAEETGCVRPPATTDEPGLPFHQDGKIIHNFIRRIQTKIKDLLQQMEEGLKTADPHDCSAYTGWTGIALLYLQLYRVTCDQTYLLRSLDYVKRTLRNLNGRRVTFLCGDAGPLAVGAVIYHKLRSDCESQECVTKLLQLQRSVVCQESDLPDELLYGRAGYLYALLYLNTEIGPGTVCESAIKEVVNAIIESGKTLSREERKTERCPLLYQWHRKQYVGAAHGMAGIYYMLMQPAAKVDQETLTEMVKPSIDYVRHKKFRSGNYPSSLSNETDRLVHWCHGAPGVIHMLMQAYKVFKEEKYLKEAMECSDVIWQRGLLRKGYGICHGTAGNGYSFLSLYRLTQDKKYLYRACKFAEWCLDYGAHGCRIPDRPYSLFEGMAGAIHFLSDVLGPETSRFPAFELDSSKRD

LANCL2 [2] = biological target: T1, LANCL2; test: Surface plasmon resonance (SPR) binding to LANCL2; details: Tables 1A and 1B; read-out: SPR Affinity to LANCL2 (Kd)
CD4+ T cells = test: Differentiation of CD4+ T cells into Tregs with metabolic modulators; type: cell-based, mice; details: BT-11 with PS-48 (5 μM), DASA-58 (10 μM) or thapsigargin (10 nM)
Experimental: (§1) Spleens from WT and Lancl2−/− mice were excised and crushed to generate a single cell suspension. CD4+ T cell fraction was enriched by negative selection via magnetic sorting with the BD IMag system. Naïve CD4+ T cells were obtained by incubation with a biotinylated CD62L antibody followed by conjugation to streptavidin coated magnetic beads. Naïve cells were incubated for 48 hours within anti-CD3 coated tissue culture plates in complete IMDM media containing all-trans retinoic acid and purified TGF-β to stimulate differentiation into Tregs. […] Metabolic modulators, PS-48 (5 μM), DASA-58 (10 μM), and thapsigargin (10 nM), were added at 0 h. […] Six hours prior to assay, cells were stimulated with PMA and ionomycin. Cells were collected from plate for downstream analysis by flow cytometry, gene expression and metabolic assay.

WT Tregs = test: Metabolic analysis (pyruvate kinase, pyruvate dehydrogenase, PEP) in in vitro Tregs; type: cell-based, mice; details: PS-48 (5 μM)
Experimental: (§2) Colons and cells were suspended within assay specific buffer and homogenized for 10 seconds. Homogenate was centrifuged for 10 minutes at 10,000×g. For enzyme activity assays, supernatant was collected and plated. Samples were mixed with enzyme developer and substrate. Colorimetric detection of NADH production was measured using a BioTek μQuant plate reader in combination with Gen5 software. For PEP assay, supernatant was deproteinized using perchloric acid mediated purification. Samples were plated and mixed with a probe, converter, developer mix. PEP concentration was measured by absorbance quantification on plate reader.
as §1, with “Cells were collected from plate for downstream analysis by flow cytometry, gene expression and metabolic assay.” left out

Mdr1a−/− mice = Mdr1a−/− mice with PS-48 injections (in vivo validation of immunometabolic effect); details: weekly intraperitoneal injections of PS-48
Experimental: as §2
To validate the in vitro immunometabolic findings, Mdr1a−/− mice were given weekly intraperitoneal injections of PS-48 or vehicle control. […] Similar patterns were observed within the DSS model.

[3] = system: PBMCs from Crohn's disease donors; test: PBMCs isolated from Crohn's disease donors, 24 hour culture; type: cell-based, human; details: presence of thapsigargin
Experimental: Fresh de-identified whole blood was obtained from commercial vendor. Blood was diluted and purified for PBMC fraction by LeukoSep tube. Remaining red blood cells were lysed by hypotonic lysis. […] For siRNA experiments, cells were first incubated with an OriGene 3-mer LANCL2 siRNA or scrambled control suspended within ViromerGreen transfection reagent for 6 hours. […] Cells were stimulated with PMA and ionomycin six hours prior to assay.
Whole blood was obtained from Crohn's disease patients, clinically categorized as mild to moderate disease.

C. difficile = C. difficile culture in chopped meat media (anti-microbial properties); details: 10 ug/mL

Compound: CC1=CC(=O)CC(C)(C)[C@]1(O)/C=C/C(C)=C\C(=O)O [ABA, abscisic acid]
Kd (LANCL2 [1]): 2.3 µM

Kd (LANCL2 [2]): 84.3 µM
Compound: O=C(c1cccc(-c2nc3ccccc3[nH]2)c1)N1CCN(C(=O)c2cccc(-c3nc4ccccc4[nH]3)c2)CC1 [BT-4]

Compound: O=C(Nc1ccc(NC(=O)c2cccc(-c3nc4ccccc4[nH]3)c2)cc1)c1cccc(-c2nc3ccccc3[nH]2)c1 [BT-6]
Kd (LANCL2 [2]): 18.2 µM

Kd (LANCL2 [2]): 21.4 µM
Compound: O=C(c1cccc(-c2nc3ccccc3[nH]2)n1)N1CCN(C(=O)c2cccc(-c3nc4ccccc4o3)n2)CC1 [BT-15]

Kd (LANCL2 [2]): 11.7 µM
Compound: O=C1CC=C(/C=C/c2ccc(C(=O)O)o2)CC1 [BT-ABA-5a]

Kd (LANCL2 [2]): 4.65 µM
Compound: O=C1CCC(O)(/C=C/c2cccc(C(=O)O)n2)CC1 [BT-ABA-13]

Kd (LANCL2 [2]): 4.85 µM
Compound: O=C1CCC(O)(/C=C/c2cc(C(=O)O)ccn2)CC1 [BT-ABA-16]

Kd (LANCL2 [2]): 177 µM
Compound: O=C1CCC(O)(/C=C/c2ccc(C(=O)O)o2)CC1 [BT-ABA-25]

Kd (LANCL2 [2]): 163 µM
Compound: O=C1CCC(O)(/C=C/c2cccc(C(=O)O)c2)CC1 [BT-BA-6]

Compound: O=C(Nc1cccc(-c2nc3c([nH]2)C=CCC3)c1)c1ccc(C(=O)Nc2cccc(-c3nc4c([nH]3)C=CCC4)c2)cc1 [Compound 61610]
Kd (LANCL2 [1]): 6.2 µM

Compound: Nc1cccc(S(=O)(=O)N2CCCN(S(=O)(=O)c3ccc4c(c3)OCCO4)CC2)c1 [DASA-58]
Treg cell differentiation (CD4+ T cells): promotes high level differentiation in both treated and untreated cells

BT-11 induced change in PEP and PDH activity under PS-48 (WT Tregs): abrogated by treatment with PS-48
Compound: O=C(O)/C=C(/CCc1ccc(Cl)cc1)c1ccccc1 [PS-48, reference compound]
Treg cell differentiation (CD4+ T cells): abrogates the increased differentiation of Tregs generated by BT-11
BT-11-induced changes across clinical, cellular and metabolic measures (Mdr1a−/− mice): effectively blocked the BT-11-induced changes

Compound: C/C=C(/C)C(=O)O[C@H]1C(C)=C2[C@H]([C@@H]1OC(=O)CCCCCCC)[C@@](C)(OC(C)=O)C[C@H](OC(=O)CCC)[C@@]1(O)[C@H]2OC(=O)[C@@]1(C)O [thapsigargin, reference compound]
Treg cell differentiation (CD4+ T cells): diminishes the BT-11 induced increase in Treg cell differentiation
induction of FOXP3+ cells in PBMCs treated with BT-11 [3]: prevented the increased induction of FOXP3+ cells

Compound: CN[C@H](CC(C)C)C(=O)N[C@H]1C(=O)N[C@@H](CC(N)=O)C(=O)N[C@H]2C(=O)N[C@H]3C(=O)N[C@H](C(=O)N[C@H](C(=O)O)c4cc(O)cc(O)c4-c4cc3ccc4O)[C@H](O)c3ccc(c(Cl)c3)Oc3cc2cc(c3O[C@@H]2O[C@H](CO)[C@@H](O)[C@H](O)[C@H]2O[C@H]2C[C@](C)(N)[C@H](O)[C@H](C)O2)Oc2ccc(cc2Cl)[C@H]1O [vancomycin, reference compound]
reduction of colony forming units (C. difficile): 95%
colony forming units (C. difficile; from 4 million): under 200,000
